Measured values as given in PubChem BioAssay (NCI).
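Cells were grown in 96-well plates and exposed to each compound for 48 hours at five concentrations; endpoints were interpolated linearly between bracketing concentrations, or set to the highest concentration if not reached. TGI is the concentration that stops growth completely.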

What was measured:
Test in all cases: inhibition of tumour cell growth, NCI panel, 48 h
[1] = test system: UACC-257 melanoma
[2] = test system: M14 melanoma
[3] = test system: A498 renal
[4] = test system: SK-MEL-28 melanoma
[5] = test system: MDA-MB-231 breast
[6] = test system: NCI-H522 lung
[7] = test system: IGROV1 ovarian
[8] = test system: SN12C renal
[9] = test system: NCI-H460 lung
[10] = test system: COLO 205 colon
[11] = test system: 786-0 renal
[12] = test system: HS 578T breast
[13] = test system: TK-10 renal
[14] = test system: HL-60(TB) leukemia
[15] = test system: EKVX NSCLC
[16] = test system: ACHN renal
[17] = test system: SF-295 CNS
[18] = test system: HT29 colon
[19] = test system: MCF7 breast
[20] = test system: OVCAR-8 ovarian
[21] = test system: NCI-H23 lung
[22] = test system: HCT-15 colon
[23] = test system: SK-OV-3 ovarian
[24] = test system: SW-620 colon
[25] = test system: HOP-62 NSCLC
[26] = test system: SR leukemia
[27] = test system: HCT-116 colon
[28] = test system: MALME-3M melanoma
[29] = test system: SF-539 CNS
[30] = test system: DU-145 prostate
[31] = test system: SNB-19 CNS
[32] = test system: MDA-N
[33] = test system: MDA-MB-435
[34] = test system: SK-MEL-2 melanoma
[35] = test system: K-562 leukemia
[36] = test system: HOP-92 NSCLC
[37] = test system: KM12 colon
[38] = test system: OVCAR-4 ovarian
[39] = test system: SF-268 CNS
[40] = test system: SK-MEL-5 melanoma
[41] = test system: MOLT-4 leukemia
[42] = test system: LOX IMVI melanoma
[43] = test system: U251 CNS
[44] = test system: CAKI-1 renal
[45] = test system: CCRF-CEM leukemia
[46] = test system: BT-549 breast
[47] = test system: RXF 393 renal
[48] = test system: RPMI-8226 leukemia
[49] = test system: OVCAR-3 ovarian
[50] = test system: A549 NSCLC
[51] = test system: OVCAR-5 ovarian
[52] = test system: PC-3 prostate
[53] = test system: UO-31 renal
[54] = test system: NCI/ADR-RES ovarian
[55] = test system: UACC-62 melanoma
[56] = test system: NCI-H226 lung
[57] = test system: HCC-2998 colon
[58] = test system: T-47D breast
[59] = test system: SNB-75 CNS

Measured: TGI

CC1(C)N=C(N)N=C(N)N1c1cccc(OCCOc2ccc([N+](=O)[O-])cc2)c1
not listed: [53] | [54] | [55] | [56] | [57] | [58] | [59]
> 100 µM: all other assays above

O=C(CC(C(=O)c1ccoc1)c1ccco1)c1ccco1 (stereo unspecified)
not listed: [28] | [31] | [34] | [46] | [52]
> 100 µM: all other assays above
